Laboratory results published in US20170184612A1, “USE OF LEUKOCYTES AND NOVEL BIOMARKERS IN THE DIAGNOSIS, CONFIRMATION, AND TREATMENT OF A NEUROLOGICAL DISORDER” (The Trustees of Columbia University in the City of New York, priority 2014, published 2017).
Where a SMILES comes first, the peptide text is derived from it. The star is where a group is joined. Cbz = O=C(OCc1ccccc1)*; CH2F = FC*

Columns and labels:
[1] = test system: peripheral blood mononuclear cells (PBMC), T cells; assay: ELISpot assay, IFNg and IL-5 reactivity combined, T cell response to α-syn epitopes; format: cell-based, human; details: flag 1/0 per peptide
Description: Blood from age matched controls and PD patients were obtained and mononuclear cells were isolated by gradient centrifugation.
Release of the cytokines gamma-interferon, which measures activation of CD4+ and/or CD8+ T cells, and the interleukin, IL-5, which measures activation of CD4+ T cells was measured by ELISpot assay. […] After 22 hours of stimulation at 37 C, the cells were removed and release of cytokines was measured by colorimetric detection of spot-forming cells (SFC). Confirmed release of cytokine is determined by the presence of a minimum of 20 SFC per million cells.
The binding algorithms in SubAim 1 predict how well the peptides would bind to MHC if present, but not if they are present in patients. To determine this, the presence of T cell response against the candidate antigens by patient blood-derived peripheral blood mononuclear cells (PBMC) is assessed by ELISPOT assays upon stimulation with the peptides. This assay detects and quantifies cytokine release (in this case, IFNγ and IL-5) from specific activated T cells.
Data were obtained from blood samples (25 ml) from 44 PD patients and 24 age-matched controls. The experiments were conducted blindly. PBMCs from these samples were isolated and exposed to pools comprising the 122 candidate class I and class II antigens and phosphorylated S129 epitopes generated in Subaim 1. For the PBMCs responsive to the pooled peptides, the response was then deconvoluted to identify individual epitopes.
PMBC fractions are recovered by standard methods with Ficoll gradient and T cells expansion (Oseroff et al., 2010). The methods for the analysis of T cell reactions and measurement of cytokines production using the enzyme-linked immunosorbent spot (ELISPOT) assay are published in analogous experiments to discover antigens in multiple sclerosis (Lolli et al., 2013) and in hay fever allergens (Oseroff et al., 2010). T cell responses are determined by measuring IFNγ and IL-5 release by ELISPOT. Statistical analysis of differences between populations is expected to be non-parametric and analyzed with the U-Mann-Whitney test. If there were a normal distribution of response, which is a priori unlikely as some patients have no T cell response, with an SD=1, 8 patients per group would be required to provide a p>90% that the study detect a >2 fold difference at a two-sided 0.05 significance level.

[2] = test system: peripheral blood mononuclear cells (PBMC), T cells; assay: ELISpot assay, IL-5 release (SFC) after stimulation with a-synuclein epitope pools; format: cell-based, human; details: for IL-g Peptide + (donors positive to the peptide): of donors tested (peptide); for IL-g Peptide +: number of donors positive to the single peptide
Procedure, shortened: (§1)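 Samples came from 44 PD patients and 24 matched controls, tested blindly. Their PBMC were stimulated for 22 hours at 37 C with α-synuclein peptide pools, and pools that responded were resolved into individual epitopes.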

[3] = test system: peripheral blood mononuclear cells (PBMC), T cells; assay: ELISpot assay, gamma-interferon release (SFC) after stimulation with a-synuclein epitope pools; format: cell-based, human; details: for IFNg Peptide + (donors positive to the peptide): of donors tested (peptide); for IFNg Peptide +: number of donors positive to the single peptide
Procedure, shortened: as §1

[4] = test system: SN murine neuronal cultures; assay: NM and MHC-I induction by L-DOPA in SN neuronal cultures; format: cell-based, mouse
From the text: To enhance cytosolic DA, the DA precursor, L-DOPA, was used, which is accumulated by amino acid transport and converted into DA in the cytosol. Exposure to high levels of L-DOPA can produce NM in both catecholaminergic and nominally non-catecholaminergic cells (Sulzer et al., 2000). […] SN murine neuronal cultures were exposed to L-DOPA under conditions that substantially increase cytosolic DA as measured by intracellular patch electrochemistry (Mosharov et al., 2009) and promote NM production as observed by brightfield microscopy (Sulzer et al., 2000).
IFN-γ (R&D Systems) was used at a range of non-toxic concentrations for neurons or OT-1 cells (10 μg/ml-100 ng/ml, 72h). 12-well cell culture plates were pre-treated with LPS (500 ng/ml, Sigma-Aldrich), NM (5 μg/ml), α-syn, Nit-α-syn or Mut-α-syn (200 μg/ml, kindly provided by Peter Lansbury, Harvard University) for 72 h before plating 45,000-50,000 microglial cells/well for an additional 24h. A neutralizing IFN-γ antibody (1:500, PBL InterferonSource) was used to block IFN-γ released from microglia. VM neurons were incubated for 72 h with microglial medium pre-stimulated by LPS, NM, α-syn, Nit-α-syn or Mut-α-syn. As a control experiment, we directly incubated VM neurons with the same compounds in the absence of microglia. In another set of experiments, VM, cortical and striatal primary neurons were incubated for 72 h with microglial medium pre-stimulated by LPS, NM, α-syn. NM was induced in SN cultured neurons by using L-DOPA (Sulzer et al., 2000) (Sigma Aldrich). […]
Images were captured using a Leica SP5 microscope system. There was no fluorescence bleed-through of secondary antibodies under the conditions used. […]
In order to assess the proportion of TH^+ and MAP-2^+ neurons that expressed MHC-I^+, first TH^+ and MAP-2^+ neurons were counted in 24 fields surrounding the border of the well at 20× magnification. The number of TH^+ or MAP-2^+ neurons with intact soma and two or more neurites equal to or greater than the diameter of the cell soma was counted. […]

VM DA (TH+) neurons = assay: OT-1 T cell cytotoxicity (killing) assay on VM DA neurons; format: cell-based, mouse; details: for effect on CTL mediated neuronal death: neurons with IFN-γ, SIINFEKL and OT-1 cells
Description: OT-1 CD8^+ cell proliferation was assessed by BrdU incorporation. For OT-1 T cell cytotoxicity assays, DC and VM (from C57BL/6 and 56.129P2-B2mtm1Unc/J mice) cell cultures were incubated with neuronal medium or neuronal medium containing 100 ng/ml of IFN-γ (R&D Systems). Neurons were loaded with or without […] (SEQ ID NO: 9) peptide (1 μM), and, subsequently in vitro activated OT-1 cells were added at a density of 100,000 cells/well and co-incubated for 24 h.
We used the same conditions for VM cell cultures with microglial medium previously stimulated with LPS, NM or α-syn instead of IFN-γ. Neurons were pre-incubated with IFN-γ and […] (SEQ ID NO: 9) peptide as above, and then with: 1) a pan-caspase general inhibitor (Z-VAD-FMK, 20 μM, 24h, IMGENEX); 2) a specific granzyme/perforin inhibitor (concanamycin A, 100 nM, 24h, Sigma Aldrich); 3) a specific Fas/FasL antagonist (Kp7-6, 1 mM, 24h, EMD Biosciences) and 4) concanamycin A and Kp7-6 together. OT-1 cells were then added to the culture (100,000 cells/well) and maintained for 24 h.
Following immunocytochemical staining of VM neurons, we assessed the proportion of surviving DA (TH^+) and non-DA cells (MAP-2^+, TH^−). Total numbers of TH^+ and MAP-2^+ neurons were counted in 24 fields surrounding the border of the well at 20× magnification. The number of surviving TH+ neurons with an intact soma and two or more neurites equal to or greater than the diameter of the cell soma was counted and normalized to the number in untreated cultures.

primary VM neurons = assay: MHC-I expression of VM neurons after microglial conditioned medium; format: cell-based, mouse
Description: IFN-γ (R&D Systems) was used at a range of non-toxic concentrations for neurons or OT-1 cells (10 μg/ml-100 ng/ml, 72h). 12-well cell culture plates were pre-treated with LPS (500 ng/ml, Sigma-Aldrich), NM (5 μg/ml), α-syn, Nit-α-syn or Mut-α-syn (200 μg/ml, kindly provided by Peter Lansbury, Harvard University) for 72 h before plating 45,000-50,000 microglial cells/well for an additional 24h. A neutralizing IFN-γ antibody (1:500, PBL InterferonSource) was used to block IFN-γ released from microglia. VM neurons were incubated for 72 h with microglial medium pre-stimulated by LPS, NM, α-syn, Nit-α-syn or Mut-α-syn. As a control experiment, we directly incubated VM neurons with the same compounds in the absence of microglia. In another set of experiments, VM, cortical and striatal primary neurons were incubated for 72 h with microglial medium pre-stimulated by LPS, NM, α-syn. NM was induced in SN cultured neurons by using L-DOPA (Sulzer et al., 2000) (Sigma Aldrich). For foreign protein processing and subsequent antigen presentation, VM cultures were maintained for 7 days in either 1) BSA/serum-free neuronal medium, 2) BSA/serum-free supplemented with OVA (2.5 mg/ml), adding IFN-γ (100 ng/ml) or saline for an additional 72h.
Images were captured using a Leica SP5 microscope system. There was no fluorescence bleed-through of secondary antibodies under the conditions used. MHC-I label observed in the neuronal cultures obtained from wild type mice was absent in neurons from β2m KO mice (FIG. 3A).
In order to assess the proportion of TH^+ and MAP-2^+ neurons that expressed MHC-I^+, first TH^+ and MAP-2^+ neurons were counted in 24 fields surrounding the border of the well at 20× magnification. The number of TH^+ or MAP-2^+ neurons with intact soma and two or more neurites equal to or greater than the diameter of the cell soma was counted. Then, the fluorescent filter was inserted for each field to determine how many of these neurons also expressed MHC-I.

[5] = Patients Summary, PD patients, single peptide
[6] = second 'Pool Stimulated' section (from r296), 12 donors tested
[7] = peptide + / donors tested (peptide), second 'Pool Stimulated' section (from r296), 12 donors tested
[8] = single peptide, second 'Pool Stimulated' section (from r296), 12 donors tested

Molecule	Peptides + in Patients & Normals [1]	IL-g Peptide + (donors positive to the peptide) ([2]; Patients Summary, PD patients)	IL-g Response Frequency [2, 5] [%]	IL-g Total SFC [2, 5] [SFC]	IL-g Peptide + [2, 6]	IL-g Response Frequency [2, 7] [%]	IL-g Total SFC [2, 8] [SFC]	IFNg Peptide + (donors positive to the peptide) ([3]; Patients Summary, PD patients)	IFNg Response Frequency [3, 5] [%]	IFNg Total SFC [3, 5] [SFC]	IFNg Peptide + [3, 6]	IFNg Response Frequency [3, 7] [%]	IFNg Total SFC [3, 8] [SFC]	further results
3521.0053 (KAKEGVVAAA; listed as Homo sapiens)	0	0	0	0	0	0	0	0	0	0	0	0	0	–
3521.0066 (KAKEGVVAA; listed as Homo sapiens)	0	0	0	0	0	0	0	0	0	0	0	0	0	–
3521.0074 (VAAAEKTKQGVAEAP; listed as Homo sapiens)	0	0	0	0	0	0	0	1	33	67	0	0	0	IFNg Avg SFC [3, 5]: 67 SFC
N[C@@H](Cc1ccc(O)c(O)c1)C(=O)O [L-DOPA, L-dihydroxyphenylalanine]	–	–	–	–	–	–	–	–	–	–	–	–	–	neurons in which NM was induced [4]: 40%; TH+ neurons with MHC-I display ([4]; TH+ neurons): ~10%; TH− neurons with MHC-I display ([4]; TH− neurons): ~7%
COC(=O)C[C@H](NC(=O)[C@H](C)NC(=O)[C@@H](NC(=O)OCc1ccccc1)C(C)C)C(=O)CF [Z-VAD-FMK] (Cbz-Val-Ala-Asp(OMe)-CH2F)	–	–	–	–	–	–	–	–	–	–	–	–	–	effect on CTL mediated neuronal death (VM DA (TH+) neurons): protect against CTL mediated neuronal death
C/C=C/[C@H]1O[C@@](O)([C@@H](C)[C@H](O)[C@H](C)[C@H]2OC(=O)/C(OC)=C/C(C)=C/[C@@H](C)[C@@H](O)[C@@H](CC)[C@@H](O)[C@H](C)C/C(C)=C/C=C/[C@@H]2OC)C[C@@H](O[C@H]2C[C@@H](O)[C@H](OC(N)=O)[C@@H](C)O2)[C@@H]1C [concanamycin A]	–	–	–	–	–	–	–	–	–	–	–	–	–	effect on CTL mediated neuronal death (VM DA (TH+) neurons): protect against CTL mediated neuronal death
α-syn: alpha synuclein protein, wild type	–	–	–	–	–	–	–	–	–	–	–	–	–	neuronal death (VM DA (TH+) neurons; SIINFEKL, CTLs and medium conditioned by microglia exposed to the substance): caused extensive neuronal death; cell surface MHC-I presentation by VM neurons (primary VM neurons; conditioned medium from microglia incubated 72 hours with the substance): elicited cell surface MHC-I presentation; induction of neuronal MHC-I (primary VM neurons; cultures directly exposed, absence of microglial cells): no induction
